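48-hour exposure; five concentrations; linearly interpolated endpoints. GI50: concentration for 50% inhibition of growth.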 The source made the active and inactive calls. Cut-off read from the data, not from the text of the source: active = GI50 up to about 1.1 µM and inactive = higher.
Legend:
Assay in all cases: inhibition of tumour cell growth, NCI panel, 48 h
786-0 = system: 786-0
COLO 205 = system: COLO 205
DLD-1 = system: DLD-1
EKVX = system: EKVX
HOP-92 = system: HOP-92
HT-29 = system: HT-29
IGROV-1 = system: IGROV-1
KM12 = system: KM12
M14 = system: M14
Malme-3M = system: Malme-3M
NCI-H522 = system: NCI-H522
OVCAR-5 = system: OVCAR-5
RPMI-8226 = system: RPMI-8226
SK-OV-3 = system: SK-OV-3
SNB-19 = system: SNB-19
TK-10 = system: TK-10
UO-31 = system: UO-31

Measured: GI50

N#Cc1c2nc3ccccc3nc2n2ccc3ccccc3c12
inactive: 786-0 > 100 µM | COLO 205 > 100 µM | DLD-1 > 100 µM | EKVX > 100 µM | HOP-92 > 100 µM | HT-29 > 100 µM | IGROV-1 > 100 µM | KM12 32.4 µM | M14 > 100 µM | Malme-3M > 100 µM | NCI-H522 > 100 µM | OVCAR-5 > 100 µM | RPMI-8226 > 100 µM | SK-OV-3 > 100 µM | SNB-19 > 100 µM | TK-10 > 100 µM | UO-31 > 100 µM

COC(=O)C1=C(C(=O)OC)C2(OC(C)=O)c3ccccc3-c3ccccc3C12 (stereo not given)
inactive: 786-0 4.23 µM | COLO 205 1.63 µM | DLD-1 1.7 µM | EKVX 10.6 µM | HOP-92 1.77 µM | HT-29 5.47 µM | IGROV-1 3.74 µM | KM12 12.5 µM | M14 4.79 µM | Malme-3M 2.25 µM | NCI-H522 1.44 µM | OVCAR-5 14.2 µM | RPMI-8226 2.62 µM | SK-OV-3 15.5 µM | SNB-19 > 40.7 µM | TK-10 3.6 µM | UO-31 4.68 µM

CCCCN(CCCC)c1c([N+](=O)[O-])c(=O)nc2ccccn12
inactive: 786-0 34 µM | COLO 205 45.5 µM | DLD-1 35.4 µM | EKVX 32.8 µM | HOP-92 61.5 µM | HT-29 38.1 µM | IGROV-1 > 100 µM | KM12 31.3 µM | M14 27.9 µM | Malme-3M > 100 µM | NCI-H522 17.6 µM | OVCAR-5 99.3 µM | RPMI-8226 33.4 µM | SK-OV-3 > 100 µM | SNB-19 72.9 µM | TK-10 46.9 µM | UO-31 45.6 µM

O=C(O)c1ccccc1/N=C/c1ccc(N(CCCl)CCCl)cc1
inactive: COLO 205 > 100 µM | DLD-1 > 100 µM | EKVX 64.1 µM | HOP-92 > 100 µM | HT-29 > 100 µM | IGROV-1 > 100 µM | KM12 > 100 µM | Malme-3M > 100 µM | NCI-H522 > 100 µM | OVCAR-5 > 100 µM | RPMI-8226 > 100 µM | SK-OV-3 > 91.2 µM | SNB-19 > 100 µM | UO-31 > 65.2 µM

CCOC(=O)C(=O)C(C#N)c1ccc(Cl)cc1 (stereo not given)
inactive: 786-0 > 100 µM | COLO 205 > 100 µM | DLD-1 > 100 µM | EKVX > 100 µM | HOP-92 > 100 µM | HT-29 > 100 µM | IGROV-1 > 100 µM | M14 > 100 µM | Malme-3M > 100 µM | NCI-H522 > 100 µM | OVCAR-5 > 100 µM | RPMI-8226 > 100 µM | SK-OV-3 > 100 µM | SNB-19 > 100 µM | TK-10 > 100 µM | UO-31 88.1 µM

CC(=O)N/C(=C\c1cccc([N+](=O)[O-])c1)c1nc2ccc3c(c2[nH]1)C(=O)c1ccccc1C3=O
inactive: 786-0 27.2 µM | COLO 205 > 78.2 µM | DLD-1 12.2 µM | EKVX 12.7 µM | HOP-92 > 50.4 µM | HT-29 > 100 µM | IGROV-1 10.4 µM | KM12 7.57 µM | M14 70.3 µM | Malme-3M > 74.8 µM | NCI-H522 9.89 µM | OVCAR-5 > 93.3 µM | RPMI-8226 5.04 µM | SK-OV-3 13.6 µM | SNB-19 > 100 µM | TK-10 > 56 µM | UO-31 3.62 µM

CCOC(=O)NC(=O)c1c[nH]c(=O)[nH]c1=O
inactive: 786-0 > 100 µM | COLO 205 > 100 µM | DLD-1 > 100 µM | EKVX > 100 µM | HOP-92 > 100 µM | HT-29 > 100 µM | IGROV-1 > 100 µM | KM12 > 100 µM | M14 > 100 µM | Malme-3M > 100 µM | OVCAR-5 > 100 µM | RPMI-8226 > 100 µM | SK-OV-3 > 100 µM | SNB-19 > 100 µM | TK-10 > 100 µM | UO-31 > 100 µM

O=C(CC1(O)C(=O)Nc2c(Cl)cc(Cl)cc21)c1ccc2ccccc2c1 (stereo not given)
inactive: 786-0 10.2 µM | COLO 205 8.79 µM | DLD-1 11.6 µM | EKVX 9.77 µM | HOP-92 21.4 µM | HT-29 5.25 µM | IGROV-1 10.9 µM | KM12 5.92 µM | M14 4.79 µM | Malme-3M 6.53 µM | NCI-H522 2.92 µM | OVCAR-5 16.6 µM | RPMI-8226 5.22 µM | SK-OV-3 10.4 µM | SNB-19 11.4 µM | TK-10 14.1 µM | UO-31 11.5 µM

CN(C)c1ccc(/C=c2\sc3nnc(Cc4ccccc4)n3c2=O)cc1
inactive: 786-0 > 10 µM | COLO 205 > 10 µM | DLD-1 > 10 µM | EKVX > 10 µM | HOP-92 > 100 µM | HT-29 62.5 µM | IGROV-1 > 10 µM | KM12 > 10 µM | M14 > 10 µM | Malme-3M > 10 µM | NCI-H522 > 10 µM | OVCAR-5 > 10 µM | RPMI-8226 > 10 µM | SK-OV-3 > 10 µM | SNB-19 > 10 µM | TK-10 > 10 µM | UO-31 > 100 µM

COc1ccc(O)c(C#N)c1C#N.COc1ccc(OC)c(C#N)c1C#N
inactive: COLO 205 > 100 µM | DLD-1 > 100 µM | EKVX 23.7 µM | HOP-92 > 100 µM | HT-29 > 100 µM | IGROV-1 > 100 µM | KM12 > 100 µM | Malme-3M > 100 µM | OVCAR-5 > 100 µM | RPMI-8226 > 100 µM | SK-OV-3 > 100 µM | SNB-19 > 100 µM | UO-31 > 100 µM

CC(C)N(C(=O)c1cccc(C(=O)N(C(C)C)C(C)C)c1)C(C)C
inactive: 786-0 > 100 µM | COLO 205 > 100 µM | DLD-1 > 100 µM | EKVX > 100 µM | HOP-92 > 100 µM | HT-29 > 100 µM | IGROV-1 > 100 µM | KM12 > 100 µM | M14 > 100 µM | Malme-3M > 100 µM | NCI-H522 > 100 µM | OVCAR-5 > 100 µM | RPMI-8226 24.9 µM | SK-OV-3 > 100 µM | SNB-19 > 100 µM | TK-10 > 100 µM | UO-31 > 100 µM

Cc1ccc(-c2cc(-c3ccccc3)c(C#N)c(=O)n2C2OC(CO)C(O)C(O)C2O)cc1 (stereo not given)
inactive: 786-0 > 100 µM | COLO 205 > 100 µM | DLD-1 > 100 µM | EKVX > 100 µM | HOP-92 > 100 µM | HT-29 > 100 µM | IGROV-1 > 100 µM | KM12 > 100 µM | M14 > 100 µM | Malme-3M > 100 µM | NCI-H522 > 100 µM | OVCAR-5 > 100 µM | RPMI-8226 > 100 µM | SK-OV-3 > 100 µM | SNB-19 > 100 µM | TK-10 > 100 µM | UO-31 > 100 µM

CC(C)Cc1ccc(C(C)/C=C2\CCC(CN3CCCC3)C2=O)cc1 (stereo not given)
inactive: 786-0 1.85 µM | COLO 205 4.5 µM | DLD-1 2.55 µM | EKVX 18.2 µM | HOP-92 19.1 µM | HT-29 8.09 µM | IGROV-1 5.74 µM | KM12 2.77 µM | M14 13.8 µM | Malme-3M 20.4 µM | NCI-H522 1.31 µM | OVCAR-5 21.8 µM | RPMI-8226 1.84 µM | SK-OV-3 19.6 µM | SNB-19 12.4 µM | TK-10 3.69 µM | UO-31 15.9 µM

CNC(=O)OCc1c(CO)nc(SC)n1C
inactive: COLO 205 > 100 µM | DLD-1 > 100 µM | EKVX > 100 µM | HOP-92 > 100 µM | HT-29 > 100 µM | IGROV-1 > 100 µM | KM12 > 100 µM | Malme-3M > 100 µM | NCI-H522 > 100 µM | OVCAR-5 > 100 µM | RPMI-8226 > 100 µM | SK-OV-3 > 100 µM | SNB-19 > 100 µM | UO-31 > 100 µM

CCC12CCCN(Cc3ccccc3)C1c1c(n(C)c3ccccc13)C(CO)C2 (stereo not given)
inactive: 786-0 44.1 µM | COLO 205 38 µM | DLD-1 61.5 µM | EKVX 71.9 µM | HOP-92 33.4 µM | HT-29 17.9 µM | IGROV-1 38.5 µM | KM12 40.4 µM | Malme-3M 46.6 µM | NCI-H522 30.8 µM | OVCAR-5 10.5 µM | RPMI-8226 37.2 µM | SK-OV-3 74.1 µM | SNB-19 55.5 µM | TK-10 64.9 µM

O=C(Oc1ccc(Cl)cc1[N+](=O)[O-])c1ccccc1
inactive: COLO 205 > 100 µM | DLD-1 > 100 µM | EKVX > 100 µM | HOP-92 > 100 µM | HT-29 > 100 µM | IGROV-1 > 100 µM | KM12 > 100 µM | M14 > 100 µM | Malme-3M > 100 µM | OVCAR-5 57.1 µM | RPMI-8226 91.4 µM | SK-OV-3 > 100 µM | SNB-19 > 100 µM | TK-10 > 100 µM | UO-31 86.5 µM

CC(C)=CC1C(C(=O)O)C1(C)C (stereo not given) [CHRYSANTHEMIC ACID]
inactive: COLO 205 > 750 µM | DLD-1 > 750 µM | EKVX > 750 µM | HOP-92 520 µM | HT-29 > 750 µM | IGROV-1 > 750 µM | KM12 > 750 µM | Malme-3M 746 µM | NCI-H522 > 750 µM | OVCAR-5 > 750 µM | RPMI-8226 > 750 µM | SK-OV-3 > 750 µM | SNB-19 > 750 µM | UO-31 > 750 µM

From ChEMBL document CHEMBL1201862, “PubChem BioAssay data set” (2004)
